Measured values taken from ChEMBL document CHEMBL4002566, “S-substituted 3,5-dinitrophenyl 1,3,4-oxadiazole-2-thiols and tetrazole-5-thiols as highly efficient antitubercular agents” (Eur J Med Chem, 2017).
≈ marks a conversion by molar mass, not a printed value.

Legend:
Type in all cases: functional
Mycobacterium kansasii [1] = experiment: Antimycobacterial activity against Mycobacterium kansasii CNCTC My 235/80 after 7 days by micromethod; details: CNCTC My 235/80, 168 h
Mycobacterium kansasii [2] = experiment: Antimycobacterial activity against Mycobacterium kansasii 6509/96 clinical isolate after 21 days by micromethod; details: 6509/96, 504 h
Mycobacterium kansasii [3] = experiment: Antimycobacterial activity against Mycobacterium kansasii CNCTC My 235/80 after 21 days by micromethod; details: CNCTC My 235/80, 504 h
Mycobacterium kansasii [4] = experiment: Antimycobacterial activity against Mycobacterium kansasii 6509/96 clinical isolate after 7 days by micromethod; details: 6509/96, 168 h
Mycobacterium avium [5] = experiment: Antimycobacterial activity against Mycobacterium avium CNCTC My 330/88 after 21 days by micromethod; details: CNCTC My 330/88, 504 h
Mycobacterium avium [6] = experiment: Antimycobacterial activity against Mycobacterium avium CNCTC My 330/88 after 14 days by micromethod; details: CNCTC My 330/88, 336 h
[7] = tested on: Mycobacterium tuberculosis; experiment: Antimycobacterial activity against Mycobacterium tuberculosis CNCTC My 331/88 after 21 days by micromethod; details: CNCTC My 331/88, 504 h
Mycobacterium kansasii [8] = experiment: Antimycobacterial activity against Mycobacterium kansasii 6509/96 clinical isolate after 14 days by micromethod; details: 6509/96, 336 h
[9] = tested on: Mycobacterium tuberculosis; experiment: Antimycobacterial activity against Mycobacterium tuberculosis CNCTC My 331/88 after 14 days by micromethod; details: CNCTC My 331/88, 336 h
Mycobacterium kansasii [10] = experiment: Antimycobacterial activity against Mycobacterium kansasii CNCTC My 235/80 after 14 days by micromethod; details: CNCTC My 235/80, 336 h

SMILES | MIC (Mycobacterium kansasii [1]) [µM] | MIC (Mycobacterium kansasii [2]) [µM] | MIC (Mycobacterium kansasii [3]) [µM] | MIC (Mycobacterium kansasii [4]) [µM] | MIC (Mycobacterium avium [5]) [µM] | MIC (Mycobacterium avium [6]) [µM] | MIC [7] [µM] | MIC (Mycobacterium kansasii [8]) [µM] | MIC [9] [µM] | MIC (Mycobacterium kansasii [10]) [µM]
COc1ccc(CSc2nnc(-c3cc([N+](=O)[O-])cc(C(F)(F)F)c3)o2)cc1 | 2 (≈ 0.823 µg/mL) | 2 (≈ 0.823 µg/mL) | 4 (≈ 1.65 µg/mL) | 1 (≈ 0.411 µg/mL) | > 250 | > 250 | 0.5 (≈ 0.206 µg/mL) | 2 (≈ 0.823 µg/mL) | 0.5 (≈ 0.206 µg/mL) | 4 (≈ 1.65 µg/mL)
CC(=O)Nc1cc(-c2nnc(SCc3ccc(Cl)cc3)o2)cc([N+](=O)[O-])c1 | > 1000 | > 1000 | > 1000 | > 1000 | > 1000 | > 1000 | 250 (≈ 101 µg/mL) | > 1000 | 250 (≈ 101 µg/mL) | > 1000
O=[N+]([O-])c1cc(-c2nnc(S)o2)cc([N+](=O)[O-])c1 | 125 (≈ 33.5 µg/mL) | 125 (≈ 33.5 µg/mL) | 125 (≈ 33.5 µg/mL) | 125 (≈ 33.5 µg/mL) | 125 (≈ 33.5 µg/mL) | 62 (≈ 16.6 µg/mL) | 62 (≈ 16.6 µg/mL) | 125 (≈ 33.5 µg/mL) | 62 (≈ 16.6 µg/mL) | 125 (≈ 33.5 µg/mL)
CC(=O)Nc1cc(-c2nnc(SCc3ccccc3)o2)cc([N+](=O)[O-])c1 | > 1000 | > 1000 | > 1000 | > 1000 | > 1000 | > 1000 | > 1000 | > 1000 | > 1000 | > 1000
CSc1nnc(-c2cc([N+](=O)[O-])cc([N+](=O)[O-])c2)o1 | 8 (≈ 2.26 µg/mL) | 16 (≈ 4.52 µg/mL) | 32 (≈ 9.03 µg/mL) | 8 (≈ 2.26 µg/mL) | 16 (≈ 4.52 µg/mL) | 16 (≈ 4.52 µg/mL) | 8 (≈ 2.26 µg/mL) | 8 (≈ 2.26 µg/mL) | 4 (≈ 1.13 µg/mL) | 16 (≈ 4.52 µg/mL)
CCCSc1nnc(-c2cc([N+](=O)[O-])cc([N+](=O)[O-])c2)o1 | 1 (≈ 0.31 µg/mL) | 4 (≈ 1.24 µg/mL) | 2 (≈ 0.621 µg/mL) | 1 (≈ 0.31 µg/mL) | 8 (≈ 2.48 µg/mL) | 8 (≈ 2.48 µg/mL) | 0.5 (≈ 0.155 µg/mL) | 2 (≈ 0.621 µg/mL) | 0.25 (≈ 0.0776 µg/mL) | 2 (≈ 0.621 µg/mL)
CCCCCSc1nnc(-c2cc([N+](=O)[O-])cc([N+](=O)[O-])c2)o1 | 0.03 (≈ 0.0102 µg/mL) | 0.03 (≈ 0.0102 µg/mL) | 0.03 (≈ 0.0102 µg/mL) | 0.03 (≈ 0.0102 µg/mL) | 32 (≈ 10.8 µg/mL) | 16 (≈ 5.41 µg/mL) | 0.03 (≈ 0.0102 µg/mL) | 0.03 (≈ 0.0102 µg/mL) | 0.03 (≈ 0.0102 µg/mL) | 0.03 (≈ 0.0102 µg/mL)
O=[N+]([O-])c1cc(-n2nnnc2SCc2ccccc2)cc([N+](=O)[O-])c1 | 1 (≈ 0.358 µg/mL) | 2 (≈ 0.717 µg/mL) | 4 (≈ 1.43 µg/mL) | 1 (≈ 0.358 µg/mL) | 8 (≈ 2.87 µg/mL) | 4 (≈ 1.43 µg/mL) | 1 (≈ 0.358 µg/mL) | 2 (≈ 0.717 µg/mL) | 0.5 (≈ 0.179 µg/mL) | 2 (≈ 0.717 µg/mL)
O=[N+]([O-])c1cc(-c2nnc(SC3CCCCC3)o2)cc([N+](=O)[O-])c1 | 0.03 (≈ 0.0105 µg/mL) | 0.03 (≈ 0.0105 µg/mL) | 0.03 (≈ 0.0105 µg/mL) | 0.03 (≈ 0.0105 µg/mL) | 32 (≈ 11.2 µg/mL) | 16 (≈ 5.61 µg/mL) | 0.03 (≈ 0.0105 µg/mL) | 0.03 (≈ 0.0105 µg/mL) | 0.03 (≈ 0.0105 µg/mL) | 0.03 (≈ 0.0105 µg/mL)
Nc1cc(-c2nnc(SCc3ccc(Cl)cc3)o2)cc([N+](=O)[O-])c1 | 250 (≈ 90.7 µg/mL) | 250 (≈ 90.7 µg/mL) | 250 (≈ 90.7 µg/mL) | 250 (≈ 90.7 µg/mL) | 250 (≈ 90.7 µg/mL) | 250 (≈ 90.7 µg/mL) | 250 (≈ 90.7 µg/mL) | 250 (≈ 90.7 µg/mL) | 250 (≈ 90.7 µg/mL) | 250 (≈ 90.7 µg/mL)
NNC(=O)c1ccncc1 [ISONIAZID] | > 250 | 8 (≈ 1.1 µg/mL) |  | 4 (≈ 0.549 µg/mL) | > 250 | > 250 | 1 (≈ 0.137 µg/mL) | 4 (≈ 0.549 µg/mL) | 0.5 (≈ 0.0686 µg/mL) | > 250
CC(=O)Oc1cc(-c2nnc(SCc3ccc(Cl)c(Cl)c3)o2)cc([N+](=O)[O-])c1 | 1000 (≈ 440 µg/mL) | 1000 (≈ 440 µg/mL) | 1000 (≈ 440 µg/mL) | 1000 (≈ 440 µg/mL) | 1000 (≈ 440 µg/mL) | 1000 (≈ 440 µg/mL) | 1000 (≈ 440 µg/mL) | 1000 (≈ 440 µg/mL) | 1000 (≈ 440 µg/mL) | 1000 (≈ 440 µg/mL)
